Source: patent publication US20180002288A1, “USE OF PICOLINAMIDES AS FUNGICIDES” (DOW AGROSCIENCES LLC, priority 2014, published 2018)
Where two headings read alike, the source gives them in different places.

Key:
Puccinia triticina = assay: Wheat Brown Rust fungicidal activity (PUCCRT); type: in vivo; details: for pest or weed control at 121.5 g/ha: Low Volume Cereal Activity at 121.5 g/Ha; for pest or weed control at 100 ppm: wheat, high volume
Procedure: All fungicides were evaluated using the aforementioned method for their activity vs. all target diseases, unless stated otherwise. Wheat leaf blotch and brown rust activity were also evaluated using track spray applications, in which case the fungicides were formulated as EC formulations, containing 0.1% Trycol 5941 in the spray solutions. Wheat plants (variety Yuma) were grown from seed in a greenhouse in 50% mineral soil/50% soil-less Metro mix until the first leaf was fully emerged, with 7-10 seedlings per pot. These plants were inoculated with an aqueous spore suspension of Zymoseptoria tritici either prior to or after fungicide treatments. After inoculation the plants were kept in 100% relative humidity (one day in a dark dew chamber followed by two to three days in a lighted dew chamber at 20° C.) to permit spores to germinate and infect the leaf. The plants were then transferred to a greenhouse set at 20° C. for disease to develop. When disease symptoms were fully expressed on the 1st leaves of untreated plants, infection levels were assessed on a scale of 0 to 100 percent disease severity. Percent disease control was calculated using the ratio of disease severity on treated plants relative to untreated plants. Wheat plants (variety Yuma) were grown from seed in a greenhouse in 50% mineral soil/50% soil-less Metro mix until the first leaf was fully emerged, with 7-10 seedlings per pot. These plants were inoculated with an aqueous spore suspension of Puccinia triticina either prior to or after fungicide treatments. […] The plants were then transferred to a greenhouse set at 24° C. for disease to develop. Fungicide formulation, application and disease assessment followed the procedures as described in the Example A.

Zymoseptoria tritici = assay: Leaf Blotch of Wheat fungicidal activity (SEPTTR); type: in vivo; details: for pest or weed control at 121.5 g/ha: Low Volume Cereal Activity at 121.5 g/Ha; for pest or weed control at 100 ppm: wheat, high volume
Procedure: All fungicides were evaluated using the aforementioned method for their activity vs. all target diseases, unless stated otherwise. Wheat leaf blotch and brown rust activity were also evaluated using track spray applications, in which case the fungicides were formulated as EC formulations, containing 0.1% Trycol 5941 in the spray solutions. Wheat plants (variety Yuma) were grown from seed in a greenhouse in 50% mineral soil/50% soil-less Metro mix until the first leaf was fully emerged, with 7-10 seedlings per pot. These plants were inoculated with an aqueous spore suspension of Zymoseptoria tritici either prior to or after fungicide treatments. After inoculation the plants were kept in 100% relative humidity (one day in a dark dew chamber followed by two to three days in a lighted dew chamber at 20° C.) to permit spores to germinate and infect the leaf. The plants were then transferred to a greenhouse set at 20° C. for disease to develop. When disease symptoms were fully expressed on the 1st leaves of untreated plants, infection levels were assessed on a scale of 0 to 100 percent disease severity. Percent disease control was calculated using the ratio of disease severity on treated plants relative to untreated plants.

[1] = 24 h, 1 Day Protectant, read-out: PUCCRT 1DP (Wheat Brown Rust, 1 Day Protectant)
[2] = 72 h, 3 Day Curative, read-out: PUCCRT 3DC (Wheat Brown Rust, 3 Day Curative)
[3] = 24 h, 1 Day Protectant, read-out: SEPTTR 1DP (Wheat Leaf Blotch, 1 Day Protectant)
[4] = 72 h, 3 Day Curative, read-out: SEPTTR 3DC (Wheat Leaf Blotch, 3 Day Curative)
[5] = 24 h, 1 Day Protectant, read-out: PUCCRT 1DP % Control rating
[6] = 72 h, 3 Day Curative, read-out: PUCCRT 3DC % Control rating
[7] = 24 h, 1 Day Protectant, read-out: SEPTTR 1DP % Control rating
[8] = 72 h, 3 Day Curative, read-out: SEPTTR 3DC % Control rating

Row | SMILES | pest or weed control at 121.5 g/ha (Puccinia triticina; [1]) [%] | pest or weed control at 121.5 g/ha (Puccinia triticina; [2]) [%] | pest or weed control at 121.5 g/ha (Zymoseptoria tritici; [3]) [%] | pest or weed control at 121.5 g/ha (Zymoseptoria tritici; [4]) [%] | pest or weed control at 100 ppm (Puccinia triticina; [5]) [%] | pest or weed control at 100 ppm (Puccinia triticina; [6]) [%] | pest or weed control at 100 ppm (Zymoseptoria tritici; [7]) [%] | pest or weed control at 100 ppm (Zymoseptoria tritici; [8]) [%]
1 | COc1ccnc(C(=O)N[C@@H](C)C(=O)O[C@@H](C)C(Oc2ccccc2)c2nccs2)c1OCOC(C)=O (some centres unmarked) [Example 213] | > 80 | > 80 | < 0 | < 80 |  |  |  | 
2 | COc1ccnc(C(=O)N[C@@H](C)C(=O)O[C@@H](C)[C@H](Oc2cccc(F)c2)c2ccccc2)c1O [Example 127] |  |  |  |  | > 80 | > 80 | > 80 | > 80
3 | COc1ccnc(C(=O)N[C@@H](C)C(=O)O[C@@H](C)[C@H](Oc2ccc(C(F)(F)F)cc2)c2ccccc2)c1O [Example 125] |  |  |  |  | < 80 | < 0 | < 80 | < 80
4 | COc1ccnc(C(=O)N[C@@H](C)C(=O)O[C@@H](C)[C@H](Oc2ccccc2)c2ccc(F)cc2Cl)c1O [Example 163] |  |  |  |  | > 80 | > 80 | > 80 | > 80
5 | COc1ccnc(C(=O)N[C@@H](C)C(=O)O[C@@H](C)[C@@H](Oc2ccccc2)c2cccs2)c1OC(C)=O [Example 210] | < 80 | < 80 | < 80 | < 80 |  |  |  | 
6 | COc1ccnc(C(=O)N[C@@H](C)C(=O)O[C@@H](C)[C@H](Oc2cccc(Cl)c2)c2ccccc2)c1OC(C)=O [Example 203] | > 80 | < 80 | > 80 | > 80 |  |  |  | 
7 | COc1cc(F)ccc1[C@@H](OC(=O)C1CC1)[C@H](C)OC(=O)[C@H](C)NC(=O)c1nccc(OC)c1O [Example 291] |  |  |  |  | < 80 | < 80 | < 0 | > 80
8 | CC[C@H](NC(=O)c1nccc(OC)c1OCOC(C)=O)C(=O)O[C@@H](C)[C@H](Oc1cc(F)cc(Cl)c1)c1ccccc1 [Example 208] | > 80 | < 80 | > 80 | > 80 |  |  |  | 
9 | CCCO[C@@H](c1ccccc1)[C@H](C)OC(=O)[C@H](C)NC(=O)c1nccc(OC)c1O [Example 138] |  |  |  |  | > 80 | > 80 | < 80 | < 80
10 | COc1ccnc(C(=O)N[C@@H](C)C(=O)O[C@@H](C)[C@@H](OCC2CC2)c2ccccc2)c1OC(C)=O [Example 232] | > 80 | > 80 | < 0 | > 80 |  |  |  | 
11 | COc1ccnc(C(=O)N[C@@H](C)C(=O)O[C@@H](C)[C@H](Oc2cccc(F)c2)c2cccc(-c3ccccc3)c2)c1O [Example 133] |  |  |  |  | < 80 | < 0 | < 0 | < 0
12 | CC[C@H](NC(=O)c1nccc(OC)c1OC(C)=O)C(=O)O[C@@H](C)[C@H](Oc1cc(F)cc(Cl)c1)c1ccccc1 [Example 209] | > 80 | < 80 | > 80 | > 80 |  |  |  | 
13 | COc1ccnc(C(=O)N[C@@H](C)C(=O)O[C@@H](C)[C@@H](Oc2ccc(Cl)cc2Cl)c2ccccc2)c1OCOC(C)=O [Example 216] | > 80 | < 80 | > 80 | > 80 |  |  |  | 
14 | COc1ccnc(C(=O)N[C@@H](C)C(=O)O[C@@H](C)[C@H](Oc2ccccc2)c2ccc(F)cc2OCC(F)F)c1O [Example 176] |  |  |  |  | > 80 | > 80 | > 80 | > 80
